Source: patent US5331094A, “Purified active somatostatin receptor” (American Cyanamid Company, priority 1992, dated 1994)
Bridge positions count the residues as written; N and C are the ends. Square brackets hold non-standard residues; d marks the D form. Peptide text beside a SMILES is read from it. * marks the point of attachment. Biotin = O=C1N[C@H]2[C@H](CS[C@H]2CCCCC(=O)*)N1; Tyr(3-I) = N[C@@H](Cc1ccc(O)c(I)c1)C(=O)O

Key:
[1] = tested on: SRIF receptor; conditions: pituitary cells; Kirk et al. 1984; cited from earlier work
[2] = tested on: SRIF receptor; experiment: Tracing of SRIF R:L complex with [125I]Bio-S28: membrane binding and deoxycholate:lysolecithin solubilization; parameters: species or system rat
Method: 1. Binding of biotinyl-SRIF to GH4 C1 membranes. The binding step is carried out as described in Section 4 of "Receptor Binding Methods". Incubations are for 1 hour at room temperature. In the standard purification protocol, the binding incubations contain 10 nM Bio-S29/ [^125 I]Bio-S28 is added as a tracer at levels of 5,000-100,000 cpm per mg of membrane protein. Control incubations contain 10 uM cold S14 to saturate the receptor with non-biotinylated ligand.
2. Solubilization of receptor:ligand complex. This is done as described ("Membrane Solubilization"), with 0.15% deoxycholate:lysolecithin in solubilization buffer containing 0.2 mM MgCl2, to obtain 100,000×g supernatants containing solubilized R:L complex.
(§1) A preparation of SRIF receptor is purified from 17 mg GH4 C1 pituitary cell membranes as described in "Methods: Receptor Purification". Some important features of this experiment are as follows: Two 17 mg samples of membranes are used. Both are incubated with 10^-8 M Bio-S28. However, one sample also receives 10^-5 M non-biotinyl S14 for 2-3 minutes before addition of any Bio-S28. This serves to block binding of Bio-S28 and creates a control to show non-specific binding of proteins to the streptavidin column. Also, each sample receives 1.5×10^8 cpm of [^125 I]Bio-S28 as a tracer. This is added 2-3 minutes before the addition of cold Bio-S28. After a 1-hour binding step, the membranes are washed in binding buffer without BSA and solubilized in solubilization buffer containing 0.15% deoxycholate:lysolecithin and 0.2 mM MgCl2. Each 100,000×g supernatant (17 ml) is incubated with 0.6 ml of streptavidin-agarose for 4 hours at 4°-10° C. The SA-agarose is transferred to a 0.7 cm diameter column, washed and eluted with EDTA/EGTA/GTP-gamma-S as described ("Methods: Receptor Purification").
(§2) Radioligand is followed through the procedure to estimate solubilization of R:L complex and % initial binding of R:L complex to immobilized streptavidin.

[3] = tested on: SRIF receptor; experiment: Binding of [125I]Bio-SRIF analogs to GH4 C1 membranes (CPM bound); parameters: species or system rat
Method: 3. Chemical cross-linking of radioligand with receptor is done after a binding step identical to the standard assay. However, the wash step is done with binding buffer minus BSA to reduce the possibility of non-specific cross-linking of radioligand with BSA. The cross-linking step is carried out as described below.
(§3) To compare the three biotinyl-SRIF analogs in terms of binding to streptavidin, the following experiment is done. [^125 I]Bio-SRIF analogs are bound to GH4 C1 membranes as described ("Methods: Receptor Binding Methods, 3"). All radioligands are at a concentration of […] cpm/ml. For each radioligand, a control for non-specific binding was done in the presence of 1 uM cold S14. CPM bound/mg membrane protein after the binding step are as follows: [^125 I]Bio-6C-S14=755,020 (total) and 43,361 (non-specific); [^125 I]Bio-12C=S14=633,134 (total) and 39,538 (nonspecific); [^125 I]Bio-S28=1,065,512 (total) and 35,049 (nonspecific). The membrane pellets are solubilized in solubilization buffer containing 0.15% deoxycholate:lysolecithin and 0.2 mM MgCl2 as described ("Methods: Membrane Solubilization"). […] One ml samples of solubilized membranes are incubated with 0.05 ml vols of streptavidin-agarose at 4°-10° C. on a tube rotator for the times shown. Non-specific binding samples are not done due to the low levels of non-specific binding. At the times shown, the […] beads are spun down and 100 ul samples of supernatant are counted. The cpm are compared to initial cpm in the sample and % binding to SA is calculated from this. Also, it should be noted that binding of cpm from the supernatant is considered to parallel the binding of R:L complex. Several observations confirm that this is a valid assumption.

[4] = target: T1, Immobilized Streptavidin (Streptomyces avidinii, UniProt P22629); experiment: Binding of [125I]-labelled biotinyl-SRIFs (solubilized R:L complex) to immobilized streptavidin
T1 construct: purchased Pierce Chemical Co
Method: as §3

[5] = target: SRIF receptor; experiment: Scatchard analysis of binding of [125I]-labelled SRIF analogs to GH4 C1 membranes; parameters: species or system rat; conditions: GH4 C1 membranes (FIG. 2), read-out: dissociation constant (KD)
Method: 1. Standard Binding Assays--Binding assays are done in a binding buffer containing 50 mM HEPES (pH 7.4), 0.5% BSA and 5 mM MgCl2. The standard assay for [^125 I]SRIF analog binding to GH4 C1 membranes, done in 96 well microtiter plates (Dynataech Immulon II Removawell plates), is carried out as follows: 1. Radioligand is diluted in binding buffer+ PMSF/Baci to the desired cpm per vol. of 50 μl and then 50 μl aliquots are added to the wells. For non-specific binding samples, 5 μl of 40 μM cold S14 is also added per well. 2. Binding is initiated by adding 150 μl per well of membrane diluted to the desired concentration (10-30 ug membrane protein/well) in binding buffer+ PMSF/Baci. Plates are then covered with Linbro mylar plate sealers (Flow Labs) and placed on a Dynatech Microshaker II and binding is allowed to proceed at room temperature for 1-2 hours. Binding is stopped by centrifuging the plate for 15 minutes at 2,000×g. The supernatants are dumped off and membrane pellets washed once by addition of 200 μl of ice cold binding buffer, brief shaking and recentrifugation. Finally the individual wells are placed in 12×75 mm tubes and counted in an LKB Gammamaster counter (78% efficiency). Specific binding by this method is identical to that measured when free ligand is removed by rapid (3-5 seconds) filtration and washing on polyethyleneimine-coated glass fiber filters.
Because Bio-C6-S14, Bio-C12-S14 and Bio-S28 all contain tyrosine residues, it is possible to prepare their [^125 I] labelled analogs and carry out Scatchard analyses of their binding affinities relative to [^125 I]Tyr11-S14 (FIG. 2). As shown in the figure, the [^125 I]-labelled peptides fall in the same order of potency as their non-labelled forms. The dissociation constants (KDs) and relative binding affinities are [^125 I]Tyr11-S14 (0.1 nM)>[^125 I]Bio-S28 (0.2 nM)>[^125I]Bio-6C-S14 (0.3 nM)>[^125 I]Bio-12C-S14 (0.4 nM).

[6] = target: T1, Immobilized Streptavidin; experiment: Tracing of SRIF R:L complex with [125I]Bio-S28: adsorption to streptavidin-agarose during purification; assay type: binding
Method: 3. Adsorption of solubilized R:L complex to streptavidin. Immobilized streptavidin (streptavidin cross-linked to 6% beaded agarose, Pierce Chemical Co.; "SA-agarose") is washed in solubilization buffer and added to the solubilized membranes as 1/30 of the final volume. This mixture is incubated with constant stirring by end-over-end rotation for 4-5 hours at 4°-10° C. Then the mixture is applied to a column and the non-bound material is washed through. Binding of radioligand to SA-agarose is determined by comparing cpm in the 100,000×g supernatant with that in the column effluent after adsorption to SA-agarose. Finally, the column is washed with 12-15 column volumes of solubilization buffer+0.15% deoxycholate:lysolecithin +1/500 (vol/vol) 100×4pase.
as §1, §2
As discussed above, this should approximate the binding of R:L complex to streptavidin.

[7] = 10^-8 M Bio-S28 + 10^-5 M S14 (NSB)

T1 sequence (P22629 25-183): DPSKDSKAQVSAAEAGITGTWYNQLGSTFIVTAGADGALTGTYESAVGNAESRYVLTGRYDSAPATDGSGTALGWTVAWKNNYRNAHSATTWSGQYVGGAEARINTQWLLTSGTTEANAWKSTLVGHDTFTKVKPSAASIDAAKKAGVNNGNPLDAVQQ

Row | Molecule | decrease of binding of [125I]Tyr1-SRIF [1] | CPM Solubilized by Deoxycholate:Lysolecithin (%) ([2]; 10^-8 M Bio-S28) | CPM Initially Bound to Membranes [2, 7] | CPM Solubilized by Deoxycholate:Lysolecithin (%) [2, 7] [%] | CPM Initially Bound to Membranes ([2]; ligand in binding step 10^-8 M Bio-S28) | CPM bound/mg membrane protein (total) ([3]; after the binding step, total) | CPM bound/mg membrane protein (non-specific) ([3]; in the presence of 1 uM cold S14) | Initial CPM ([4]; 100 ul of initial 100,000 x g supernatant containing soluble R:L complex) | CPM (non-bound), 1 hour ([4]; 100 ul supernatant after 1 hour incubation with SA-agarose, 4-10 C) | CPM (non-bound), 3 hours ([4]; 100 ul supernatant after 3 hours incubation with SA-agarose, 4-10 C) | % Binding of Radioligand to SA-Agarose, 1 hour, % Bound ([4]; 1 hour incubation with SA-agarose) [%] | % Binding of Radioligand to SA-Agarose, 3 hours, % Bound ([4]; 3 hours incubation with SA-agarose) [%] | Kd [5] [nM] | Solubilized CPM Non-Bound to Streptavidin (%) ([6]; 10^-8 M Bio-S28) | Solubilized CPM Non-Bound to Streptavidin (%) [6, 7] [%] | specifically bound radioligand bound to streptavidin ([6]; calculation from Table 2) [%]
1 | pertussis toxin | more than 95% | – | – | – | – | – | – | – | – | – | – | – | – | – | – | –
2 | CC(C)C[C@H](NC(=O)[C@H](C)NC(=O)[C@@H]1CCCN1C(=O)[C@H](CC(N)=O)NC(=O)[C@H](CO)NC(=O)[C@H](CC(N)=O)NC(=O)[C@H](C)NC(=O)[C@H](CO)NC(=O)CCCC[C@@H]1SC[C@@H]2NC(=O)N[C@@H]21)C(=O)N[C@@H](C)C(=O)N1CCC[C@H]1C(=O)N[C@@H](CCCNC(=N)N)C(=O)N[C@@H](CCC(=O)O)C(=O)N[C@@H](CCCNC(=N)N)C(=O)N[C@@H](CCCCN)C(=O)N[C@@H](C)C(=O)NCC(=O)N[C@H]1CSSC[C@@H](C(=O)O)NC(=O)[C@H](CO)NC(=O)[C@H]([C@@H](C)O)NC(=O)[C@H](Cc2ccc(O)c(I)c2)NC(=O)[C@H]([C@@H](C)O)NC(=O)[C@H](CCCCN)NC(=O)[C@@H](Cc2c[nH]c3ccccc23)NC(=O)[C@H](Cc2ccccc2)NC(=O)[C@H](Cc2ccccc2)NC(=O)[C@H](CC(N)=O)NC(=O)[C@H](CCCCN)NC1=O [[^125 I]Bio-S28] (Biotin-SANSNPALAPRERKAGCKNFF[dW]KT[Tyr(3-I)]TSC-OH; disulfide 17-28) | – | 91 | 9,316 CPM | 73 | 59,132 CPM | 1,065,512 CPM bound/mg membrane protein | 35,049 CPM bound/mg membrane protein | 92,534 CPM | 31,645 CPM | 17,098 CPM | 66 | 82 | 0.2 | 28 | 15 | 72
